Data on ten molecules can be found in patent US11396495B2, “Amine compound for inhibiting SSAO/VAP-1 and use thereof” (SUNSHINE LAKE PHARMA CO., LTD., priority 2017, dated 2022).

Each structure is given as a SMILES string. Structures can show the parent of a compound that is named as a salt.

Data set [1] has as its target human recombinant DAO (Homo sapiens (Human), UniProt P19801). In words: Determination of selective inhibitory for DAO (diamine oxidase). The following applies: human recombinant DAO, 1,4-diaminobutane substrate. It is filed as biochemical. The method, then: 3. Determination of Selective Inhibitory for DAO (Diamine Oxidase)
Test purpose: The following methods can be used to determine the selective inhibitory activity of the compounds of the invention for DAO.
human recombinant DAO (Recombinant Human ABP-1/DAO) purchased from R&D, Cat. No. 8298-AO;
The test compound was dissolved in DMSO and diluted to 6 concentrations in 5-fold serial dilution. In 384 well plates, 24 μL of human recombinant DAO (1 μg/mL) was added to each well. 1 μL Of test compounds with different concentrations were added to each well containing human recombinant DAO and incubated at 37° C. for 30 min. After 30 min incubation, 25 μL of Amplex® Red Hydrogen PeroxidePeroxidase Assay Kit (containing a reaction mixture of 100 μM Amplex® Red and 0.2 U/mL HRP) containing 1 M 1,4-Diaminobutane dihydrochloride was added to the corresponding well, and incubated at 37° C. and dark for 30 min. After 30 min, the relative fluorescence unit (RFU) was read by using PHERAstar FSX enzyme marker of BMG LABTECH at 540 nm excitation and 580 nm emission. The curve was drawn by using the graph pad prism 5 software, and the IC50 value was calculated. The results were shown in table 3, wherein the compound listed in table 3 is the compound in the preparation examples with the same compound number: […]

Data set [2] is described as follows: Pharmacokinetics in SD rats after intravenous or oral administration. It is filed as in vivo. The following applies: male, rat, plasma; for Vd: read-out: Vss. The protocol: 4. Pharmacokinetic Activities of the Compounds of the Invention
Test purpose: The following methods were used to evaluate the pharmacokinetics of the compound of the invention.
SD rats: male, 180-220 g, 7-8 weeks old, purchased from Hunan SJA Laboratory Animal Co., Ltd.
Test compound was prepared by dissolving in a mixture of 5% DMSO+5% KolliphorHS15+90% Saline and adjusted according to the dissolution of each compound, so that the compound can be completely dissolved.
The samples were processed by liquid-liquid extraction, separated by chromatography, quantitatively analyzed by multiple reaction ion monitoring (MRM) on triple quadrupole tandem mass spectrometer, and the results were calculated by using quantitative software.
Taking 30 μL of plasma sample precisely, adding 250 μL of internal standard, and vortex mixing uniformly. Extracting once with 1 mL MTBE, centrifugating at 13000 rpm and 4° C. for 2 min, taking 800 μL of supernatant, and evaporating it in a 96-well termovap sample concentrator, dissolving the residue with 150 μL methanol/water=50/50, vortex mixing, injecting 8 μL.
Determining the content of different compounds in the plasma of rats after the administration by using LC/MS/MS method.
Pharmacokinetic parameters were calculated using a noncompartmental method by WinNonLin 6.1 software.
The pharmacokinetic data of the compounds of the invention were listed in table 4, wherein the compound listed in table 4 is the compound in the preparation examples with the same compound number: […]

The target of data set [3] is Human recombinant SSAO/VAP-1 (Homo sapiens (Human), UniProt Q16853). In words: Determination of inhibitory activity of human recombinant SSAO/VAP-1 (Amplex Red, benzylamine). It is filed as biochemical. The following applies: human recombinant SSAO/VAP-1, 30 min preincubation at room temperature; read-out: SSAO/VAP-1(Human recombinant protein) IC50/nM. The method, then: 1. Determination of Inhibitory Activity of Human Recombinant SSAO/VAP-1
Human recombinant SSAO/VAP-1, sequence (Q16853 whole entry): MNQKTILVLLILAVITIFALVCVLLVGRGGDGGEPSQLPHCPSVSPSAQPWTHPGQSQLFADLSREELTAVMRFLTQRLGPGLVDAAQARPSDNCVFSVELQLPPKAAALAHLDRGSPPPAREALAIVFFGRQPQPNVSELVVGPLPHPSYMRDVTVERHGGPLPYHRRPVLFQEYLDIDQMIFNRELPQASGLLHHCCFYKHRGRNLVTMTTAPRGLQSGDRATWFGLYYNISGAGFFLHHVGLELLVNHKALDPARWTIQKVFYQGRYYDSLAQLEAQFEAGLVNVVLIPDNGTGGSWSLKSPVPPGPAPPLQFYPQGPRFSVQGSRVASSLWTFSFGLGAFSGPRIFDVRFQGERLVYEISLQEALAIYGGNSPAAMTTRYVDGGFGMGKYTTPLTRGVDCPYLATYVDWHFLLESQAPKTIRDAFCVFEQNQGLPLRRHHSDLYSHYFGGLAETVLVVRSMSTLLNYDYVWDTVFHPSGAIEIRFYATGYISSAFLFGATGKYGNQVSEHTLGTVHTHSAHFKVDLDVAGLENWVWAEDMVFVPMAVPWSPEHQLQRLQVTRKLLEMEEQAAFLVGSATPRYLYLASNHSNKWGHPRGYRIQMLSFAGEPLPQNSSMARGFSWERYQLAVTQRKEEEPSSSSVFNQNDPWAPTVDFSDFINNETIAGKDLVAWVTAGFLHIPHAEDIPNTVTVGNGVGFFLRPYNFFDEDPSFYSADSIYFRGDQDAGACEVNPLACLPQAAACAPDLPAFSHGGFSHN
Test purpose: The following methods can be used to determine the inhibitory activity of the compounds described in the examples of the invention for human recombinant SSAO/VAP-1.
Human recombinant SSAO/VAP-1 (VAP-1, human) purchased from Sigma, Cat. No. SRP6241;
The test compound was dissolved in DMSO and diluted to 10 concentrations in 4-fold serial dilution. In 384 well plates, 25 μL of human recombinant SSAO/VAP-1 (1.6 μg/ml) was added to each well. 100 nL of test compounds with different concentrations were added to each well containing human recombinant SSAO/VAP-1 and incubated at room temperature for 30 min. After 30 min incubation, 25 μl of Amplex® red monoamine oxidase assay kit (containing a reaction mixture of 200 μm Amplex Red reagent, 1 U/ml HRP and 1 mm benzylamine hydrochloride) was added to the corresponding well, and incubated at room temperature and dark for 60 min. After 60 min, the relative fluorescence unit (RFU) was read by using PerkinElmer's Envision at 530-560 nm excitation and 590 nm emission. The curve was drawn by using the graph pad prism 5 software, and the IC50 value was calculated. The results were shown in table 1, wherein the compound listed in table 1 is the compound in the preparation examples with the same compound number: […]

The target in data set [4] is rat adipose tissue homogenate SSAO/VAP-1 (Rattus norvegicus (Rat), UniProt O08590). The experiment in a line: Determination of inhibitory activity of rat adipose tissue homogenate SSAO/VAP-1. The following applies: rat abdominal adipose tissue homogenate, pargyline pretreated, 37° C. It is filed as biochemical, Sprague Dawley rats. The method, then: 2. Determination of Inhibitory Activity of Rat Adipose Tissue Homogenate SSAO/VAP-1
rat adipose tissue homogenate SSAO/VAP-1, sequence (O08590 whole entry): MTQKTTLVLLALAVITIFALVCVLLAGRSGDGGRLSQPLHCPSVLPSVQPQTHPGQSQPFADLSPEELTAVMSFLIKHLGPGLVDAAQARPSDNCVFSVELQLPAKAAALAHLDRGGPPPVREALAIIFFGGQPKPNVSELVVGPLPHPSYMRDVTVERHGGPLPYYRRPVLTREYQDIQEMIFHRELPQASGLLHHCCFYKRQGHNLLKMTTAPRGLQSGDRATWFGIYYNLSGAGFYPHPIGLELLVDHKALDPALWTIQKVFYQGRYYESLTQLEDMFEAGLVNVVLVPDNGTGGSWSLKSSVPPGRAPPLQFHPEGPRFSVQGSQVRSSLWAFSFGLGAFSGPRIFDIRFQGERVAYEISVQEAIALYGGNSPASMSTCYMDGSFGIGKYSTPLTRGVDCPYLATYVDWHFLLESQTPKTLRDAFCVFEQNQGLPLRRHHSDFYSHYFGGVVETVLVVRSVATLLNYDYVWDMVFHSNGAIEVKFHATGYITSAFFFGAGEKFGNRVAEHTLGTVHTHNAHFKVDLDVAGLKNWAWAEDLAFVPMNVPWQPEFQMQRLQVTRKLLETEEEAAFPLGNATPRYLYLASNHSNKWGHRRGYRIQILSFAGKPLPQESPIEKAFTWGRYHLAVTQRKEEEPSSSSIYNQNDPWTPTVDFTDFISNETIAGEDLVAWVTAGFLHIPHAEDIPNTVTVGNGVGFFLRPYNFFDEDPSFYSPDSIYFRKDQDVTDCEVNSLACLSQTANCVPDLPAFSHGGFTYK
Test purpose: The following methods can be used to determine the inhibitory activity of the compounds of the invention for rat adipose tissue homogenate SSAO/VAP-1.
The abdominal fat removed from Sprague Dawley rats was a tissue rich in SSAO/VAP-1. 5 mL Of HES buffer per gram of rat abdominal adipose tissue (20 mM Sodium N-piperazine-N-ethanesulfonate, 1 mm EDTA, 250 mM sucrose, 1×PMSF and 100 mM (3-glycerol phosphate disodium salt hydrate, pH 7.4) was added for homogenizing. The fat tissue was homogenized for 3 min by using Bertin precellys 24 multi-functional sample homogenizer of Bertin technologies, and the fat tissue homogenate was centrifuged for 10 min at 4° C. and 20000 g, and the middle transparent supernatant was taken. The supernatant was incubated with 0.5 mm Pargyline hydrochloride dissolved in HES buffer at 37° C. for 30 min. After 30 min incubation, 25 μl of fat tissue supernatant was added to the standard 96 well plate. The test compound was dissolved in DMSO and diluted to 6 concentrations. 25 μL Of the test compounds with different concentrations was added to each well containing the supernatant of fat tissue and incubated at 37° C. for 30 min. After incubation, 50 μL of the reaction mixture containing 80 μM benzylamine hydrochloride (containing 100 μM Amplex® red and 0.2 U/mL HRP, Amplex® Red Hydrogen peroxideperoxidase assay kit) was added to the corresponding wells and incubated at 37° C. for 30 min. After 30 min, the relative fluorescence unit (RFU) was read by using PHERAstar FSX enzyme marker of BMG LABTECH at 540 nm excitation and 580 nm emission. The curve was drawn by using the graph pad prism 5 software, and the IC50 value was calculated. The results were shown in table 2, wherein the compound listed in table 2 is the compound in the preparation examples with the same compound number: Table 2: inhibitory activity of the compound of examples of the invention for SSAO/VAP-1 of fat tissue homogenate

human recombinant DAO, sequence (P19801 20-751): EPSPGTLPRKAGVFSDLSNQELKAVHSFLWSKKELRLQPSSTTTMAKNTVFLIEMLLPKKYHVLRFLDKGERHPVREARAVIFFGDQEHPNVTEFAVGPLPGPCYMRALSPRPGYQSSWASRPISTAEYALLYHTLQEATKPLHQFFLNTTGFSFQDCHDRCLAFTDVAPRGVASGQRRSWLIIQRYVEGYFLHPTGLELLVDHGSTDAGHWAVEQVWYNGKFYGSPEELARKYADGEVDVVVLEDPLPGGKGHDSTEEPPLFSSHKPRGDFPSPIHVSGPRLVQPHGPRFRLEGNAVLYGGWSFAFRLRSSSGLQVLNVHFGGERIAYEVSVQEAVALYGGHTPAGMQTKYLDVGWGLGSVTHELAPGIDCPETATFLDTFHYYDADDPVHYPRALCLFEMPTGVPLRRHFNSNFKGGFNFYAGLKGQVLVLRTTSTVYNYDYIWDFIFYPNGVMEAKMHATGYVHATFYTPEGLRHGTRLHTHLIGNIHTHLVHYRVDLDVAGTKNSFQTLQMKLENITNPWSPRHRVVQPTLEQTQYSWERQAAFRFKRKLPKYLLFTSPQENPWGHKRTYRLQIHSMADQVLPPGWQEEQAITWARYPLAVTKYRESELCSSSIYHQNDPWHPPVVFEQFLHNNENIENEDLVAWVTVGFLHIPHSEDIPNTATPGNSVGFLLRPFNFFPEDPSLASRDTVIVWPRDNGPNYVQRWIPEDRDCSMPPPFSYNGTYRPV

Turning to `NC/C(=C\F)COc1ccc2c(c1)C(=O)NCC2` [Compound 14, 7-[(E)-2-(aminomethyl)-3-fluoro-allyloxy]-3,4-dihydro-2H-isoquinolin-1-one hydrochloride], the IC50 in data set [1] is > 1 µM.

For `NC/C(=C\F)COc1ccc2c(c1)CCNC2=O` [Compound 3, 6-[(E)-2-(aminomethyl)-3-fluoro-allyloxy]-3,4-dihydro-2H-isoquinolin-1-one hydrochloride], the IC50 in data set [1] was > 0.1 µM.

`Cc1ccccc1N1CCc2cc(OC/C(=C/F)CN)ccc2C1=O` [Compound 46, 6-[(E)-2-(aminomethyl)-3-fluoro-allyloxy]-2-o-methylphenyl-3,4-dihydroisoquinolin-1-one hydrochloride]: the IC50 in data set [1] was > 0.1 µM.

The term AUC(0-inf) denotes the area under the concentration-time curve extrapolated to infinity. Usually AUC(0-t) stands for exposure summed from dosing to a finite time, without extrapolation to infinity. For orientation: Cmax means the maximum level reached in the sampled fluid or tissue. The term Tmax denotes the time at which the peak concentration occurs. One may read the half-life as the time needed for the level to fall by half in the phase considered. A low value points to rapid decline. With `CCOC(=O)CN1CCc2cc(OC/C(=C/F)CN)ccc2C1=O` [Compound 12, ethyl 2-[6-[(E)-2-(aminomethyl)-3-fluoro-allyloxy]-1-oxo-3,4-dihydroisoquinolin-2-yl]acetate hydrochloride], in data set [2] (iv, I.V., 1 mg/kg), the total exposure AUC(0-inf) came out at 843 ng·h/mL, the exposure AUC(0-t) is 837 ng·h/mL, the Cmax was 946 ng/mL and the time to peak (Tmax) stood at 15 min. Besides, in data set [2] (iv, I.V., 1 mg/kg), the clearance is 330 mL/min/kg, the half-life is 56.2 min and the Vd turned out to be 1.07 L/kg. In addition, in data set [2] (po, P.O., 5 mg/kg), the AUC(0-inf) was found to be 2900 ng·h/mL, the exposure AUC(0-t) came out at 2890 ng·h/mL, the maximum concentration (Cmax) stood at 2190 ng/mL and the Tmax turned out to be 25 min. In addition, the half-life in data set [2] (po, P.O., 5 mg/kg) is 57.5 min. Also, the IC50 in data set [3] was determined as 0.14 nM. Further, the IC50 in data set [4] came out at 10.1 nM. For the same molecule, in data set [1], the IC50 is > 0.1 µM.

Turning to `Cc1ccc(N2CCc3cc(OC/C(=C/F)CN)ccc3C2=O)cc1` [Compound 24, 6-[(E)-2-(aminomethyl)-3-fluoro-allyloxy]-2-(p-methylphenyl)-3,4-dihydroisoquinolin-1-one hydrochloride], in data set [2] (iv, I.V., 1 mg/kg), the AUC(0-inf) was found to be 450 ng·h/mL, the AUC(0-t) came to 364 ng·h/mL, the concentration peaked (Cmax) at 144 ng/mL and the Tmax was 4.98 min. Moreover, in data set [2] (iv, I.V., 1 mg/kg), the clearance is 617 mL/min/kg, the half-life is 179 min and the Vd was 9.19 L/kg. In data set [2] (po, P.O., 5 mg/kg), the total exposure AUC(0-inf) turned out to be 5320 ng·h/mL, the AUC(0-t) was 5280 ng·h/mL, the Cmax is 569 ng/mL and the Tmax stood at 150 min. In data set [2] (po, P.O., 5 mg/kg), this molecule gave a half-life of 207 min. Also, the IC50 in data set [3] came to 1.16 nM. In addition, the IC50 in data set [1] was > 0.1 µM.

With `NC/C(=C\F)COc1ccc2c(c1)CCN(c1ccccc1)C2=O` [Compound 5, 6-[(E)-2-(aminomethyl)-3-fluoro-allyloxy]-2-phenyl-3,4-dihydroisoquinolin-1-one hydrochloride], the figures for the IC50 in data set [3] and in data set [4] were 0.37 nM and 4.87 nM, respectively.

For `CN1CCc2cc(OC/C(=C/F)CN)ccc2C1=O` [Compound 8, 6-[(E)-2-(aminomethyl)-3-fluoro-allyloxy]-2-methyl-3,4-dihydroisoquinolin-1-one hydrochloride], the IC50 amounted to 0.32 nM in data set [3] and 8.84 nM in data set [4].

Turning to `COCCN1CCc2cc(OC/C(=C/F)CN)ccc2C1=O` [Compound 18, 6-[(E)-2-(aminomethyl)-3-fluoro-allyloxy]-2-(2-methoxyethyl)-3,4-dihydroisoquinolin-1-one hydrochloride], the IC50 came out at 0.48 nM in data set [3] and 6.13 nM in data set [4].

Consider `NC/C(=C/F)COc1ccc2c(c1)NC(=O)CC2` [Compound 2, 7-[(Z)-2-(aminomethyl)-3-fluoro-allyloxy]-3,4-dihydro-1H-quinolin-2-one hydrochloride], for which the IC50 in data set [3] was determined as 1.01 nM; in data set [4] it was 11.6 nM.

With `COCCN1CCc2cc(OC/C(=C\F)CN)ccc2C1=O` [Compound 19, 6-[(Z)-2-(aminomethyl)-3-fluoro-allyloxy]-2-(2-methoxyethyl)-3,4-dihydro isoquinolin-1-one hydrochloride], the IC50 in data set [3] is 1 nM; in data set [4] it was 5.7 nM.
